Test results as given in US4795743A, “2'-deamino-2'-hydroxyistamycin Bo derivatives of low toxicity” (Zaidan Hojin Biseibutsu Kagaku Kenkyu Kai, priority 1986, dated 1989).
≈ marks a conversion by molar mass, not a printed value. Where two headings read alike, the source gives them in different places.

Assays:
[1] = test system: Staphylococcus aureus 209P; assay: Antibacterial spectrum, standard serial dilution method of Japan Society of Chemotherapy; format: cell-based; conditions: S. aureus 209P, Muller-Hinton medium, 37° C., 18 hours, read-out: Minimum Growth Inhibitory Concentration
[2] = test system: Staphylococcus aureus Ap 01; assay: Antibacterial spectrum, standard serial dilution method; format: cell-based; conditions: AP01, 18 h, read-out: Minimum Growth Inhibitory Concentration
[3] = test system: Staphylococcus epidermidis 109; assay: as above; format: cell-based; conditions: Staphylococcus epidermidis, 109, 18 h, read-out: Minimum Growth Inhibitory Concentration
Bacillus anthracis = assay: microbe, parasite or virus in culture; format: cell-based; conditions: 18 h, read-out: Minimum Growth Inhibitory Concentration
[4] = test system: Bacillus subtilis PCI 219; assay: Antibacterial spectrum, standard serial dilution method; format: cell-based; conditions: PCI219; Bacillus subtilis PCI 219; Muller-Hinton medium, 37° C., 18 hours; read-out: Minimum Growth Inhibitory Concentration
[5] = test system: Bacillus subtilis NRRL B-558; assay: as above; format: cell-based; conditions: NRRLB558; Bacillus subtilis NRRL B-558; Muller-Hinton medium, 37° C., 18 hours; read-out: Minimum Growth Inhibitory Concentration
[6] = test system: Corynebacterium bovis 1810; assay: as above; format: cell-based; conditions: Corynebacterium bovis 1810; Muller-Hinton medium, 37° C., 18 hours; read-out: Minimum Growth Inhibitory Concentration
Escherichia coli NIHJ = assay: as above; format: cell-based; conditions: 18 h, read-out: Minimum Growth Inhibitory Concentration
[7] = test system: Escherichia coli K-12 J5 R11-2; assay: as above; format: cell-based; conditions: K12J5R112, 18 h, read-out: Minimum Growth Inhibitory Concentration
[8] = test system: Escherichia coli K-12 ML1630; assay: as above; format: cell-based; conditions: K12ML1630, E. coli K-12 ML1630, Muller-Hinton medium, 37° C., 18 hours, read-out: Minimum Growth Inhibitory Concentration
[9] = test system: Escherichia coli K-12 ML1410; assay: as above; format: cell-based; conditions: K12ML1410, 18 h, read-out: Minimum Growth Inhibitory Concentration
[10] = test system: Escherichia coli K-12 ML1410 R81; assay: as above; format: cell-based; conditions: K12ML1410R81, 18 h, read-out: Minimum Growth Inhibitory Concentration
[11] = test system: Escherichia coli K-12 LA290 R55; assay: as above; format: cell-based; conditions: K12LA290R55, 18 h, read-out: Minimum Growth Inhibitory Concentration
[12] = test system: Escherichia coli K-12 LA290 R56; assay: as above; format: cell-based; conditions: K12LA290R56, 18 h, read-out: Minimum Growth Inhibitory Concentration
Escherichia coli W677 = assay: as above; format: cell-based; conditions: read-out: Minimum Growth Inhibitory Concentration
[13] = test system: Escherichia coli JR66/W677; assay: as above; format: cell-based; conditions: read-out: Minimum Growth Inhibitory Concentration
[14] = test system: Escherichia coli K-12 C600 R135; assay: as above; format: cell-based; conditions: K12C600R135, E. coli K-12 C600 R135, Muller-Hinton medium, 37° C., 18 hours, read-out: Minimum Growth Inhibitory Concentration
[15] = test system: Klebsiella Pneumoniae PCI 602; assay: as above; format: cell-based; conditions: Klebsiella pneumoniae, 18 h, read-out: Minimum Growth Inhibitory Concentration
[16] = test system: Klebsiella pneumoniae 22 = 3038; assay: as above; format: cell-based; conditions: Klebsiella pneumoniae, 18 h, read-out: Minimum Growth Inhibitory Concentration
[17] = test system: Shigella dysernteriae JS11910; assay: as above; format: cell-based; conditions: Muller-Hinton medium, 37° C., 18 hours, read-out: Minimum Growth Inhibitory Concentration
Shigella sonnei = assay: as above; format: cell-based; conditions: Muller-Hinton medium, 37° C., 18 hours, read-out: Minimum Growth Inhibitory Concentration
Proteus vulgaris OX19 = assay: as above; format: cell-based; conditions: read-out: Minimum Growth Inhibitory Concentration
Proteus rettgeri GN311 = assay: as above; format: cell-based; conditions: Providencia rettgeri, GN311, 18 h, read-out: Minimum Growth Inhibitory Concentration
Serratia marcescens = assay: as above; format: cell-based; conditions: 18 h, read-out: Minimum Growth Inhibitory Concentration
Serratia sp. SOU = assay: as above; format: cell-based; conditions: read-out: Minimum Growth Inhibitory Concentration
Serratia sp. 4 = assay: as above; format: cell-based; conditions: Muller-Hinton medium, 37° C., 18 hours, read-out: Minimum Growth Inhibitory Concentration
Providencia sp. Pv16 = assay: as above; format: cell-based; conditions: read-out: Minimum Growth Inhibitory Concentration
Providencia sp. 2991 = assay: as above; format: cell-based; conditions: Providencia, SP.2991, 18 h, read-out: Minimum Growth Inhibitory Concentration
[18] = test system: Pseudomonas aeruguinosa No.12; assay: as above; format: cell-based, Pseudomonas aeruginosa; conditions: Muller-Hinton medium, 37° C., 18 hours, read-out: Minimum Growth Inhibitory Concentration
[19] = test system: Pseudomonas aeruguinosa H9; assay: as above; format: cell-based, Pseudomonas aeruginosa; conditions: read-out: Minimum Growth Inhibitory Concentration
[20] = test system: Pseudomonas aeruguinosa 99; assay: as above; format: cell-based, Pseudomonas aeruginosa; conditions: Muller-Hinton medium, 37° C., 18 hours, read-out: Minimum Growth Inhibitory Concentration
[21] = test system: Pseudomonas aeruguinosa 21-75; assay: as above; format: cell-based, Pseudomonas aeruginosa; conditions: 2175, Muller-Hinton medium, 37° C., 18 hours, read-out: Minimum Growth Inhibitory Concentration
[22] = test system: Pseudomonas aeruguinosa PST1; assay: as above; format: cell-based, Pseudomonas aeruginosa; conditions: Muller-Hinton medium, 37° C., 18 hours, read-out: Minimum Growth Inhibitory Concentration
[23] = test system: Pseudomonas aeruguinosa ROS 134/PU21; assay: as above; format: cell-based, Pseudomonas aeruginosa; conditions: ROS134/PU21, 18 h, read-out: Minimum Growth Inhibitory Concentration

| Structure (SMILES) | MIC [1] | MIC [2] | MIC [3] | MIC (Bacillus anthracis) | MIC [4] | MIC [5] | MIC [6] | MIC (Escherichia coli NIHJ) | MIC [7] | MIC [8] | MIC [9] | MIC [10] | MIC [11] | MIC [12] | MIC [14] | MIC [15] | MIC [16] | MIC [17] | MIC (Shigella sonnei) | MIC (Proteus rettgeri GN311) | further results |
| --- | --- | --- | --- | --- | --- | --- | --- | --- | --- | --- | --- | --- | --- | --- | --- | --- | --- | --- | --- | --- | --- |
| CNCC1CCC(O)C(OC2C(N)CC(OC)C(N(C)C(=O)CN)C2O)O1 (centres unmarked) [Compound No. 1, 2'-Deamino-2'-hydroxyistamycin B] | 3.13 µg/mL (≈ 8.02 µM) | 6.25 µg/mL (≈ 16 µM) | 6.25 µg/mL (≈ 16 µM) | 12.5 µg/mL (≈ 32 µM) | 3.13 µg/mL (≈ 8.02 µM) | 3.13 µg/mL (≈ 8.02 µM) | 3.13 µg/mL (≈ 8.02 µM) | 1.56 µg/mL (≈ 4 µM) | 1.56 µg/mL (≈ 4 µM) | 6.25 µg/mL (≈ 16 µM) | 6.25 µg/mL (≈ 16 µM) | 6.25 µg/mL (≈ 16 µM) | 6.25 µg/mL (≈ 16 µM) | 3.13 µg/mL (≈ 8.02 µM) | 3.13 µg/mL (≈ 8.02 µM) | 6.25 µg/mL (≈ 16 µM) | 12.5 µg/mL (≈ 32 µM) | 6.25 µg/mL (≈ 16 µM) | 6.25 µg/mL (≈ 16 µM) | 6.25 µg/mL (≈ 16 µM) | MIC (Escherichia coli W677; W677, 18 h): 1.56 µg/mL (≈ 4 µM); MIC ([13]; E. coli JR66/W677, Muller-Hinton medium, 37° C., 18 hours): 3.13 µg/mL (≈ 8.02 µM); MIC (Proteus vulgaris OX19; Proteus vulgaris OX19, Muller-Hinton medium, 37° C., 18 hours): 3.13 µg/mL (≈ 8.02 µM); MIC (Serratia marcescens): 12.5 µg/mL (≈ 32 µM); MIC (Serratia sp. SOU; Serratia, 18 h): 6.25 µg/mL (≈ 16 µM); MIC (Serratia sp. 4): > 100 µg/mL; MIC (Providencia sp. Pv16; Providencia, SP.PV16, 18 h): 6.25 µg/mL (≈ 16 µM); MIC (Providencia sp. 2991): 12.5 µg/mL (≈ 32 µM); MIC [18]: 100 µg/mL (≈ 256 µM); MIC ([19]; Pseudomonas aeruguinosa H9, Muller-Hinton medium, 37° C., 18 hours): > 100 µg/mL; MIC [20]: > 100 µg/mL; MIC [21]: > 100 µg/mL; MIC [22]: 100 µg/mL (≈ 256 µM); MIC [23]: > 100 µg/mL |
| CNCC1CCC(O)C(OC2C(N)CC(O)C(N(C)C(=O)CN)C2O)O1 (centres unmarked) [Compound No. 2, 2'-Deamino-2'-hydroxy-3-O-demethylistamycin B] | 3.13 µg/mL (≈ 8.31 µM) | 6.25 µg/mL (≈ 16.6 µM) | 1.56 µg/mL (≈ 4.14 µM) | 1.56 µg/mL (≈ 4.14 µM) | 3.13 µg/mL (≈ 8.31 µM) | 3.13 µg/mL (≈ 8.31 µM) | 3.13 µg/mL (≈ 8.31 µM) | 1.56 µg/mL (≈ 4.14 µM) | 1.56 µg/mL (≈ 4.14 µM) | 6.25 µg/mL (≈ 16.6 µM) | 6.25 µg/mL (≈ 16.6 µM) | 6.25 µg/mL (≈ 16.6 µM) | 6.25 µg/mL (≈ 16.6 µM) | 3.13 µg/mL (≈ 8.31 µM) | 3.13 µg/mL (≈ 8.31 µM) | 6.25 µg/mL (≈ 16.6 µM) | 6.25 µg/mL (≈ 16.6 µM) | 12.5 µg/mL (≈ 33.2 µM) | 6.25 µg/mL (≈ 16.6 µM) | 1.56 µg/mL (≈ 4.14 µM) | MIC (Escherichia coli W677; E. coli W677, Muller-Hinton medium, 37° C., 18 hours): 3.13 µg/mL (≈ 8.31 µM); MIC ([13]; JR66/W677, 18 h): 6.25 µg/mL (≈ 16.6 µM); MIC (Proteus vulgaris OX19; Proteus vulgaris, OX19, 18 h): 1.56 µg/mL (≈ 4.14 µM); MIC (Serratia marcescens): 12.5 µg/mL (≈ 33.2 µM); MIC (Serratia sp. SOU; Serratia sp. SOU, Muller-Hinton medium, 37° C., 18 hours): 3.13 µg/mL (≈ 8.31 µM); MIC (Serratia sp. 4): 25 µg/mL (≈ 66.4 µM); MIC (Providencia sp. Pv16; Providencia sp. Pv16, Muller-Hinton medium, 37° C., 18 hours): 3.13 µg/mL (≈ 8.31 µM); MIC (Providencia sp. 2991): 6.25 µg/mL (≈ 16.6 µM); MIC [18]: 25 µg/mL (≈ 66.4 µM); MIC ([19]; Pseudomonas, H9, 18 h): 12.5 µg/mL (≈ 33.2 µM); MIC [20]: 50 µg/mL (≈ 133 µM); MIC [21]: 25 µg/mL (≈ 66.4 µM); MIC [22]: 25 µg/mL (≈ 66.4 µM); MIC [23]: 50 µg/mL (≈ 133 µM) |
